Reference: patent publication US8821864B2, “Compounds and methods useful for detection and treatment of cancer” (Roche MTM Laboratories AG, priority 2002, dated 2014)

Tested on: HLA-A2.1 expressing cell lines presenting frameshift peptides
Experiment: Cytotoxicity assay of CTL directed against cells displaying frameshift peptides
Assay type: cell-based, human
Details: cold targets: T2 cells pulsed with peptide, inhibitor:target ratio 50:1
Method: (§1) (FSP02); The antigen specificity of the FSP02 CTL line was tested in the presence of unlabeled cold targets, T2 cells pulsed with FSP02 (open squares) at an inhibitor:target ratio of 50:1. Lysis without cold targets is shown as a control (closed squares). All data are shown as the mean and standard deviation from 3 replicate wells. For experimental details see example 6.
as §1, with “(FSP06);” for “(FSP02);”, “FSP06” for “FSP02”, “pulsed either” for “pulsed”
CTL bulk cultures and/or CTL clones obtained according to the method described in Example 1 were tested for their cytotoxicity as follows:
Due to the limited amount of cell material clones were in some experiments pooled for the determination of the cytotoxicity. […]

For “RLSSCVPVA [FSP02, frameshift peptide from TGF-betaRII (−1), start amino acid 131]”, the “lysis of target cells by FSP CTL line (antigen specificity)” value was “Frameshift peptide specific and HLA-A2-restricted lysis of target cells”.
“SLYKFSPFPL [FSP06, frameshift peptide from OGT (−1), start amino acid 128]” was tested, and the “lysis of target cells by FSP CTL line (antigen specificity)” value was “Frameshift peptide specific and HLA-A2-restricted lysis of target cells”.
